Reference: US10624912B2, “Spirocyclic Pyridotriazine Derivatives useful as HIV integrase inhibitors” (priority 2015, dated 2020)
Where two headings read alike, the source gives them in different places.

Test system: HIV-1
Experiment: HIV-1 infection assay (antiviral potency, MT4-GFP reporter cells)
Format: cell-based
Experimental: HIV-1 replication was monitored using MT4-gag-GFP clone D3 (hereafter designate MT4-GFP), which are MT-4 cells modified to harbor a GFP reporter gene, the expression of which is dependent on the HIV-1 expressed proteins tat and rev. Productive infection of an MT4-GFP cell with HIV-1 results in GFP expression approximately 24 h post-infection.
MT4-GFP cells were maintained at 37° C./5% CO2/90% relative humidity in RPMI 1640 supplemented with 10% fetal bovine serum, 100 U/ml penicillin/streptomycin, and 400 μg/ml G418 to maintain the reporter gene. For infections, MT4-GFP cells were placed in the same medium lacking G418 and infected overnight with H9IIIB or NL4-3 virus at an approximate multiplicity of infection of 0.01 in the same incubation conditions. Cells were then washed and resuspended in either RPMI 1640 containing no serum at 1.6×10^5 cells/mL (serum free conditions), 10% normal human serum at 1.6×10^5 cells/mL (10% NHS conditions) or in 100% normal human serum at 2×10^5 cells/mL (100% NHS conditions). Compound plates were prepared by dispensing compounds taken up in DMSO into wells of 384 well poly D lysine-coated plates (0.2 μl/well) using an ECHO acoustic dispenser. Each compound was tested in a 10 point serial 3-fold dilution (typical final concentrations: 4.2 μM-0.21 nM). Controls included no inhibitor (DMSO only) and a combination of three antiviral agents (efavirenz, indinavir, and the integrase strand transfer inhibitor L-002254051 at final concentrations of 4 μM each). Cells were added (50 μL/well) to compound plates and the infected cells were maintained at 37° C./5% CO2/90% relative humidity.
Infected cells were quantified at two time points, ˜48 h and ˜72 h post-infection, by counting the number of green cells in each well using an Acumen eX3 scanner. The increase in the number of green cells over ˜24 h period gives the reproductive ratio, R0, which is typically 5-15 and has been shown experimentally to be in logarithmic phase (data not shown). Inhibition of R0 is calculated for each well, and IC50 value was determined using non-linear 4-parameter curve fitting.

[1] = Human immunodeficiency virus 1, NL43, MT4-GFP cells infected with H9IIIB or NL4-3 virus, 100% normal human serum, inhibition of reproductive ratio R0, read-out: VIKING IP (nM) with 100% NHS
[2] = Human immunodeficiency virus 1, NL43, MT4-GFP cells infected with H9IIIB or NL4-3 virus, serum free conditions (0% NHS), inhibition of reproductive ratio R0, read-out: VIKING IP (nM) with 0% NHS
[3] = Human immunodeficiency virus 1, NL43, read-out: VIKING IP (nM) with 0% NHS

Structure (SMILES)	IC50 [1]	IC50 [2]	IC50 [3]
CC(C)OC(=O)OCOP(=O)(CCCN1C(=O)c2c(O)c(=O)c(C(=O)NCc3ccc(F)cc3F)cn2N(CCP(=O)(OCOC(=O)OC(C)C)OCOC(=O)OC(C)C)C12CCOC2)OCOC(=O)OC(C)C (racemic) [Compound 49]	8.8 nM	0.3 nM	
CCCOP(=O)(CCN1n2cc(C(=O)NCc3ccc(F)cc3F)c(=O)c(O)c2C(=O)N(C)[C@]12CCOC2)OCC (single isomer, unassigned) [Compound 6]	45.9 nM	2 nM	
CN1C(=O)c2c(O)c(=O)c(C(=O)NCc3ccc(F)cc3F)cn2N(CCP(=O)(O)O)[C@]12CCOC2 (single isomer, unassigned) [Compound 9]	961 nM	23.3 nM	
CN1C(=O)c2c(O)c(=O)c(C(=O)NCc3ccc(F)cc3F)cn2N(CCP(=O)(O)O)[C@@]12CCOC2 (single isomer, unassigned) [Compound 10]	449 nM	14.4 nM	
CCOP(=O)(CCN1C(=O)c2c(O)c(=O)c(C(=O)NCc3ccc(F)cc3F)cn2N(C)C12CCOC2)OCC (single isomer, unassigned) [Compound 45]	118 nM	2.9 nM	
CN1n2cc(C(=O)NCc3ccc(F)cc3F)c(=O)c(O)c2C(=O)N(CCP(=O)(O)O)C12CCOC2 (single isomer, unassigned) [Compound 46]	775 nM	92.1 nM	
CC(C)OC(=O)OCOP(=O)(CCN1C(=O)c2c(O)c(=O)c(C(=O)NCc3ccc(F)cc3F)cn2N(C)C12CCOC2)OCOC(=O)OC(C)C (single isomer, unassigned) [Compound 47]	106 nM	2.9 nM	
CC(C)OC(=O)[C@H](C)NP(=O)(CCN1C(=O)c2c(O)c(=O)c(C(=O)NCc3ccc(F)cc3F)cn2N(C)C12CCOC2)Oc1ccccc1 (single isomer, unassigned) [Compound 48]			23.8 nM
CC(C)OC(=O)OCOP(=O)(CCN1n2cc(C(=O)NCc3ccc(F)cc3F)c(=O)c(O)c2C(=O)N(C)[C@@]12CCOC2)OCOC(=O)OC(C)C [Compound 11]	1.5 nM	0.05 nM	
CC(C)OC(=O)OCOP(=O)(O)CCN1n2cc(C(=O)NCc3ccc(F)cc3F)c(=O)c(O)c2C(=O)N(C)[C@@]12CCOC2 [Compound 12]	156 nM	0.8 nM	
CC(C)OC(=O)OCOP(=O)(CCN1n2cc(C(=O)NCc3ccc(F)cc3F)c(=O)c(O)c2C(=O)N(C)[C@]12CCOC2)OCOC(=O)OC(C)C [Compound 13]	1.8 nM	0.04 nM	
CC(C)OC(=O)OCOP(=O)(O)CCN1n2cc(C(=O)NCc3ccc(F)cc3F)c(=O)c(O)c2C(=O)N(C)[C@]12CCOC2 [Compound 14]	89 nM	1.6 nM	
CC(C)OC(=O)[C@H](C)NP(=O)(CCN1n2cc(C(=O)NCc3ccc(F)cc3F)c(=O)c(O)c2C(=O)N(C)[C@@]12CCOC2)Oc1ccccc1 (some centres unmarked) [Compound 15]			3.9 nM
CC(C)OC(=O)[C@H](C)NP(=O)(CCN1n2cc(C(=O)NCc3ccc(F)cc3F)c(=O)c(O)c2C(=O)N(C)[C@]12CCOC2)Oc1ccccc1 (some centres unmarked) [Compound 16]			3.7 nM
CCOP(=O)(CCN1C(=O)c2c(O)c(=O)c(C(=O)NCc3ccc(F)cc3F)cn2N(C)C12CCOC2)OCC (centres unmarked) [Compound 40]	92.6 nM	3.6 nM	
CN1n2cc(C(=O)NCc3ccc(F)cc3F)c(=O)c(O)c2C(=O)N(CCP(=O)(O)O)C12CCOC2 (centres unmarked) [Compound 42]	447 nM	54.8 nM	
CC(C)OC(=O)OCOP(=O)(CCN1C(=O)c2c(O)c(=O)c(C(=O)NCc3ccc(F)cc3F)cn2N(C)C12CCOC2)OCOC(=O)OC(C)C (centres unmarked) [Compound 43]	43.4 nM	1.2 nM	
CC(C)OC(=O)[C@H](C)NP(=O)(CCN1C(=O)c2c(O)c(=O)c(C(=O)NCc3ccc(F)cc3F)cn2N(C)C12CCOC2)Oc1ccccc1 (some centres unmarked) [Compound 44]			13.4 nM
